Columns and labels:
Assay type in all cases: cell-based, rat
PC12 cells [1] = test: Dopamine production test of PC12 cells (Experimental example 1); conditions: 72 hours; for dopamine-producing ability, as compared to a case without these components: any one component in the medium, NGF 50 ng/ml
Experimental: Dopamine production tests of PC12 cells, using various components, were carried out as follows.
(§1) Such passage was repeated at least three times.
(§2) Supernatants were removed.
(§3) Each sample is numbered 1 to 39.
A concentration of dopamine in each supernatant was measured. Measurement of dopamine concentration was carried out using ELIZA KIT (manufactured by ImmuSmol, Product No.: BA-E-5300) according to the specifications. A ratio of dopamine concentration in each supernatant was expressed as a percentage (%) of a control of which dopamine concentration in the supernatant is 1.
The same applies to FIGS. 2 to 5. In FIG. 1, τ means statistically significant. * means that synergistic effect was confirmed by combining two components. Synergistic effect herein means that use of two components in combination can produce more amount of dopamine than a sum of amounts of dopamine produced when each component is used alone.

PC12 cells [2] = test: Hydrogen peroxide toxicity resistance test, MTT (Experimental example 6); conditions: for MTT assay in medium with hydrogen peroxide: hydrogen peroxide 100 μM, component alone or combination with 6-MSITC
Experimental: In Experimental example 6, resistance of PC12 cells against hydrogen peroxide was tested. The test method is the same as that of Experimental example 5, except that hydrogen peroxide was added to the differentiation medium B, instead of amyloid β in Experimental example 5 above. A concentration of hydrogen peroxide in the differentiation medium B was 100 μM.

PC12 cells [3] = test: Neurite extension test of PC12 cells (Experimental example 3); conditions: 72 hours; for neurite extension effect, as compared to a case without these components: any one component in the medium, NGF 50 ng/ml
Experimental: Neurite extension tests of PC12 cells, using various components, were carried out as follows.
as §1, §2, §3
Supernatants were removed. Three microscopic images (bright field, ×10 images, three wells per well) of PC12 cells settled in each well were taken. The shape of the whole PC12 cells in the images was observed. A shown in FIG. 6, when PC12 cells undergo differentiation, a neurite 2 extends from a cell body 1. The total number of PC12 cells, and the number of cells having the neurite 2 with a length L2 were counted. The length L2 is a longer length than a longer diameter L1 of the cell body 1. The number of cells having the neurite with the length L2 was divided by the total number of cells to obtain an extension percentage of the PC12 cells. […] The extension percentage was expressed by an average value of all PC12 cells appearing in all images. […] The same applies to FIGS. 8 to 11. […] Synergistic effect herein means that use of two components in combination can increase the extension percentage as compared to a sum of extension percentages when each component is used alone.

PC12 cells [4] = test: Toxicity test to PC12 cells using MTT reagent (Experimental example 2); conditions: 72 hours, 6-MSITC and DHA 2.5-160 μM, curcumin 2.5-40 μM, isorhamnetin 0.02-10 μM
Experimental: In order to investigate toxicity of each component to PC12 cells, the PC12 cells were cultured in the same manner as in the above steps (1) to (4) of Experimental example 1, except for components added to the medium.
as §2

PC12 cells [5] = test: Toxicity test to PC12 cells using MTT reagent (Experimental example 4); conditions: 72 hours, 6-MSITC and DHA 2.5-160 μM, curcumin 2.5-40 μM, isorhamnetin 2.5-20 μM
Experimental: In order to investigate toxicity of each component to PC12 cells, the PC12 cells were cultured in the same manner as in the above steps (1) to (4) of Experimental example 3, except for components added to the medium.
as §2

COc1cc(/C=C/C(=O)CC(=O)/C=C/c2ccc(O)c(OC)c2)ccc1O [curcumin, Curcumin]
amount of dopamine production produced by the PC12 cells vs control (PC12 cells [1]; 0.1 μM added to the medium): higher than the control
amount of dopamine production produced by the PC12 cells vs control (PC12 cells [1]; 2.5 μM added to the medium): higher than the control
dopamine-producing ability, as compared to a case without these components (PC12 cells [1]): enhanced
MTT assay in medium with hydrogen peroxide (PC12 cells [2]): a value without problem
extension of PC12 cells (extension percentage) (PC12 cells [3]; 0.1 μM added to the medium): significant extension enhancement
extension of PC12 cells (extension percentage) (PC12 cells [3]; 0.5 μM added to the medium): significant extension enhancement
extension of PC12 cells (extension percentage) (PC12 cells [3]; 2.5 μM added to the medium): significant extension enhancement
neurite extension effect, as compared to a case without these components (PC12 cells [3]): enhanced

OO [hydrogen peroxide, reference compound]
MTT assay, as compared to the medium without hydrogen peroxide (control) (PC12 cells [2]; medium containing only hydrogen peroxide, 100 μM): significantly decreased

COc1cc(-c2oc3cc(O)cc(O)c3c(=O)c2O)ccc1O [isorhamnetin, Isorhamnetin]
MTT assay compared with control (not using the component) (PC12 cells [4]): higher than the case of not using them (control)
toxicity to PC12 cells (PC12 cells [4]; MTT): low
amount of dopamine production produced by the PC12 cells vs control (PC12 cells [1]; 0.02 μM added to the medium): higher than the control
amount of dopamine production produced by the PC12 cells vs control (PC12 cells [1]; 0.1 μM added to the medium): higher than the control
amount of dopamine production produced by the PC12 cells vs control (PC12 cells [1]; 0.5 μM added to the medium): higher than the control
dopamine-producing ability, as compared to a case without these components (PC12 cells [1]): enhanced
MTT assay in medium with hydrogen peroxide (PC12 cells [2]): a value without problem
MTT assay compared with control (not using the component) (PC12 cells [5]): higher than the case of not using them (control)
toxicity to PC12 cells (PC12 cells [5]; MTT): low
extension of PC12 cells (extension percentage) (PC12 cells [3]; 0.02 μM added to the medium): significant extension enhancement
extension of PC12 cells (extension percentage) (PC12 cells [3]; 0.1 μM added to the medium): significant extension enhancement
extension of PC12 cells (extension percentage) (PC12 cells [3]; 0.5 μM added to the medium): significant extension enhancement
neurite extension effect, as compared to a case without these components (PC12 cells [3]): enhanced
